pIC50: −log10 of the molar value.
Tested on: Human primary T cells
Test: IL-2 ELISA, human primary T cell, anti-CD3+CD28+ (whole cell assay)
Assay type: cell-based
Settings: Homo sapiens, T-cell, 24 h, human primary T cells stimulated with anti-CD3 + anti-CD28, 24 hours
Method in brief: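 PBMC-derived T cells, pre-expanded on αCD3/αCD28 with IL-2 and then washed free of IL-2, were preincubated with compound for 1 hr at 37° C (100,000 cells/well). They were then stimulated on 1 μg/ml αCD3 plus 5 μg/ml αCD28 for 24 h, and supernatant IL-2 was measured by ELISA. The counter-assay used 0.5 ng/ml PMA plus 0.1 μM ionomycin instead.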

Structure (SMILES) | pIC50
CC(C)Oc1ccc(Nc2ncc(F)c(NC3CC(C)(C)NC(C)(C)C3)n2)cc1N(C)C(C)C [III-65, 5-fluoro-N2-(4-isopropoxy-3-(isopropyl(methyl)amino)phenyl)-N4-(2,2,6,6-tetramethylpiperidin-4-yl)pyrimidine-2,4-diamine] | < 6.00
CC(C)Oc1ccc(Nc2ncc(F)c(NC3CC(C)(C)N(C)C(C)(C)C3)n2)cc1N(C)C(C)C [III-66, 5-fluoro-N2-(4-isopropoxy-3-(isopropyl(methyl)amino)phenyl)-N4-(1,2,2,6,6-pentamethylpiperidin-4-yl)pyrimidine-2,4-diamine] | < 6.00
CCc1nnnn1-c1cc(Nc2ncc(F)c(NC3CC(C)(C)NC(C)(C)C3)n2)ccc1OC(F)F [III-67, N2-(4-(difluoromethoxy)-3-(5-ethyl-1H-tetrazol-1-yl)phenyl)-5-fluoro-N4-(2,2,6,6-tetramethylpiperidin-4-yl)pyrimidine-2,4-diamine] | 6.30 to 6.60
CN1C(C)(C)CC(Nc2nc(Nc3cccc(-c4nn[nH]n4)c3)ncc2F)CC1(C)C [III-68, N2-(3-(2H-tetrazol-5-yl)phenyl)-5-fluoro-N4-(1,2,2,6,6-pentamethylpiperidin-4-yl)pyrimidine-2,4-diamine] | < 6.00
CC1(C)CC(Nc2nc(Nc3cccc(-c4nn[nH]n4)c3)ncc2F)CC(C)(C)N1 [III-69, N2-(3-(2H-tetrazol-5-yl)phenyl)-5-fluoro-N4-(2,2,6,6-tetramethylpiperidin-4-yl)pyrimidine-2,4-diamine] | < 6.00
CC(C)n1nnnc1-c1cccc(Nc2ncc(F)c(NC3CC(C)(C)N(C)C(C)(C)C3)n2)c1 [III-70, 5-fluoro-N2-(3-(1-isopropyl-1H-tetrazol-5-yl)phenyl)-N4-(1,2,2,6,6-pentamethylpiperidin-4-yl)pyrimidine-2,4-diamine] | > 6.60
CC(C)n1nnnc1-c1cccc(Nc2ncc(F)c(NC3CC(C)(C)NC(C)(C)C3)n2)c1 [III-71, 5-fluoro-N2-(3-(1-isopropyl-1H-tetrazol-5-yl)phenyl)-N4-(2,2,6,6-tetramethylpiperidin-4-yl)pyrimidine-2,4-diamine] | 6.00 to 6.30
CN1C(C)(C)CC(Nc2nc(Nc3cccc(-c4nnnn4C4CC4)c3)ncc2F)CC1(C)C [III-72, N2-(3-(1-cyclopropyl-1H-tetrazol-5-yl)phenyl)-5-fluoro-N4-(1,2,2,6,6-pentamethylpiperidin-4-yl)pyrimidine-2,4-diamine] | > 6.60
CC1(C)CC(Nc2nc(Nc3cccc(-c4nnnn4C4CC4)c3)ncc2F)CC(C)(C)N1 [III-73, N2-(3-(1-cyclopropyl-1H-tetrazol-5-yl)phenyl)-5-fluoro-N4-(2,2,6,6-tetramethylpiperidin-4-yl)pyrimidine-2,4-diamine] | 6.00 to 6.30
CN1C(C)(C)CC(Nc2nc(Nc3cccc(-c4nnnn4CCF)c3)ncc2F)CC1(C)C [III-74, 5-fluoro-N2-(3-(1-(2-fluoroethyl)-1H-tetrazol-5-yl)phenyl)-N4-(1,2,2,6,6-pentamethylpiperidin-4-yl)pyrimidine-2,4-diamine] | 6.30 to 6.60
CC1(C)CC(Nc2nc(Nc3cccc(-c4nnnn4CCF)c3)ncc2F)CC(C)(C)N1 [III-75, 5-fluoro-N2-(3-(1-(2-fluoroethyl)-1H-tetrazol-5-yl)phenyl)-N4-(2,2,6,6-tetramethylpiperidin-4-yl)pyrimidine-2,4-diamine] | 6.00 to 6.30
CN1C(C)(C)CC(Nc2nc(Nc3cccc(-c4nnnn4CCN4CCOCC4)c3)ncc2F)CC1(C)C [III-76, 5-fluoro-N2-(3-(1-(2-morpholinoethyl)-1H-tetrazol-5-yl)phenyl)-N4-(1,2,2,6,6-pentamethylpiperidin-4-yl)pyrimidine-2,4-diamine] | 6.00 to 6.30
CC1(C)CC(Nc2nc(Nc3cccc(-c4nnnn4CCN4CCOCC4)c3)ncc2F)CC(C)(C)N1 [III-77, 5-fluoro-N2-(3-(1-(2-morpholinoethyl)-1H-tetrazol-5-yl)phenyl)-N4-(2,2,6,6-tetramethylpiperidin-4-yl)pyrimidine-2,4-diamine] | < 6.00
CN1C(C)(C)CC(Nc2nc(Nc3cc(F)c(OC4CCN(S(C)(=O)=O)CC4)c(F)c3)ncc2F)CC1(C)C [III-78, N2-(3,5-difluoro-4-(1-(methylsulfonyl)piperidin-4-yloxy)phenyl)-5-fluoro-N4-(1,2,2,6,6-pentamethylpiperidin-4-yl)pyrimidine-2,4-diamine] | 6.00 to 6.30
CN1C(C)(C)CC(Nc2nc(Nc3cc(F)c(OC4CCCN(S(C)(=O)=O)CC4)c(F)c3)ncc2F)CC1(C)C (stereo not drawn) [III-79, N2-(3,5-difluoro-4-(1-(methylsulfonyl)azepan-4-yloxy)phenyl)-5-fluoro-N4-(1,2,2,6,6-pentamethylpiperidin-4-yl)pyrimidine-2,4-diamine] | 6.00 to 6.30

Further lines, results first:

pIC50 | Structure (SMILES)
< 6.00 | CC1(C)CC(Nc2nc(Nc3cc(F)c(OC4CCCN(S(C)(=O)=O)CC4)c(F)c3)ncc2F)CC(C)(C)N1 (stereo not drawn) [III-80, N2-(3,5-difluoro-4-(1-(methylsulfonyl)azepan-4-yloxy)phenyl)-5-fluoro-N4-(2,2,6,6-tetramethylpiperidin-4-yl)pyrimidine-2,4-diamine]
6.00 to 6.30 | CC(=O)N1CCCC(Oc2c(F)cc(Nc3ncc(F)c(NC4CC(C)(C)N(C)C(C)(C)C4)n3)cc2F)CC1 (stereo not drawn) [III-81, 1-(4-(2,6-difluoro-4-(5-fluoro-4-(1,2,2,6,6-pentamethylpiperidin-4-ylamino)pyrimidin-2-ylamino)phenoxy)azepan-1-yl)ethanone]
< 6.00 | CC(=O)N1CCCC(Oc2c(F)cc(Nc3ncc(F)c(NC4CC(C)(C)NC(C)(C)C4)n3)cc2F)CC1 (stereo not drawn) [III-82, 1-(4-(2,6-difluoro-4-(5-fluoro-4-(2,2,6,6-tetramethylpiperidin-4-ylamino)pyrimidin-2-ylamino)phenoxy)azepan-1-yl)ethanone]
6.00 to 6.30 | CCNC(=O)N1CCCC(Oc2c(F)cc(Nc3ncc(F)c(NC4CC(C)(C)N(C)C(C)(C)C4)n3)cc2F)CC1 (stereo not drawn) [III-83, 4-(2,6-difluoro-4-(5-fluoro-4-(1,2,2,6,6-pentamethylpiperidin-4-ylamino)pyrimidin-2-ylamino)phenoxy)-N-ethylazepane-1-carboxamide]
< 6.00 | CC1(C)CC(Nc2nc(Nc3cc(F)c(OC4CCN(S(C)(=O)=O)CC4)c(F)c3)ncc2F)CC(C)(C)N1 [III-84, N2-(3,5-difluoro-4-(1-(methylsulfonyl)piperidin-4-yloxy)phenyl)-5-fluoro-N4-(2,2,6,6-tetramethylpiperidin-4-yl)pyrimidine-2,4-diamine]
< 6.00 | CCNC(=O)N1CCCC(Oc2c(F)cc(Nc3ncc(F)c(NC4CC(C)(C)NC(C)(C)C4)n3)cc2F)CC1 (stereo not drawn) [III-85, 4-(2,6-difluoro-4-(5-fluoro-4-(2,2,6,6-tetramethylpiperidin-4-ylamino)pyrimidin-2-ylamino)phenoxy)-N-ethylazepane-1-carboxamide]
< 6.00 | CCNC(=O)N1CCC(Oc2ccc(Nc3ncc(F)c(NC4CC(C)(C)NC(C)(C)C4)n3)cc2OC(F)F)CC1 [III-86, 4-(2-(difluoromethoxy)-4-(5-fluoro-4-(2,2,6,6-tetramethylpiperidin-4-ylamino)pyrimidin-2-ylamino)phenoxy)-N-ethylpiperidine-1-carboxamide]
6.30 to 6.60 | CCNC(=O)N1CCCC(Oc2ccc(Nc3ncc(F)c(NC4CC(C)(C)N(C)C(C)(C)C4)n3)cc2OC(F)F)CC1 (stereo not drawn) [III-87, 4-(2-(difluoromethoxy)-4-(5-fluoro-4-(1,2,2,6,6-pentamethylpiperidin-4-ylamino)pyrimidin-2-ylamino)phenoxy)-N-ethylazepane-1-carboxamide]
< 6.00 | CCNC(=O)N1CCCC(Oc2ccc(Nc3ncc(F)c(NC4CC(C)(C)NC(C)(C)C4)n3)cc2OC(F)F)CC1 (stereo not drawn) [III-88, 4-(2-(difluoromethoxy)-4-(5-fluoro-4-(2,2,6,6-tetramethylpiperidin-4-ylamino)pyrimidin-2-ylamino)phenoxy)-N-ethylazepane-1-carboxamide]
6.30 to 6.60 | CN1C(C)(C)CC(Nc2nc(Nc3ccc(OC4CCCN(S(C)(=O)=O)CC4)c(OC(F)F)c3)ncc2F)CC1(C)C (stereo not drawn) [III-89, N2-(3-(difluoromethoxy)-4-(1-(methylsulfonyl)azepan-4-yloxy)phenyl)-5-fluoro-N4-(1,2,2,6,6-pentamethylpiperidin-4-yl)pyrimidine-2,4-diamine]
6.00 to 6.30 | CC1(C)CC(Nc2nc(Nc3ccc(OC4CCCN(S(C)(=O)=O)CC4)c(OC(F)F)c3)ncc2F)CC(C)(C)N1 (stereo not drawn) [III-90, N2-(3-(difluoromethoxy)-4-(1-(methylsulfonyl)azepan-4-yloxy)phenyl)-5-fluoro-N4-(2,2,6,6-tetramethylpiperidin-4-yl)pyrimidine-2,4-diamine]
6.00 to 6.30 | CC(=O)N1CCC(Oc2c(F)cc(Nc3ncc(F)c(NC4CC(C)(C)N(C)C(C)(C)C4)n3)cc2F)CC1 [III-91, 1-(4-(2,6-difluoro-4-(5-fluoro-4-(1,2,2,6,6-pentamethylpiperidin-4-ylamino)pyrimidin-2-ylamino)phenoxy)piperidin-1-yl)ethanone]
< 6.00 | CC(=O)N1CCC(Oc2c(F)cc(Nc3ncc(F)c(NC4CC(C)(C)NC(C)(C)C4)n3)cc2F)CC1 [III-92, 1-(4-(2,6-difluoro-4-(5-fluoro-4-(2,2,6,6-tetramethylpiperidin-4-ylamino)pyrimidin-2-ylamino)phenoxy)piperidin-1-yl)ethanone]
> 6.60 | CC(C)N1CCC(Oc2ccc(Nc3ncc(F)c(NC4CC(C)(C)N(C)C(C)(C)C4)n3)cc2Cl)CC1 [III-95, N2-(3-chloro-4-(1-isopropylpiperidin-4-yloxy)phenyl)-5-fluoro-N4-(1,2,2,6,6-pentamethylpiperidin-4-yl)pyrimidine-2,4-diamine]
> 6.60 | CC1(C)CC(Nc2nc(Nc3ccc(OC4CCN(CCF)CC4)c(Cl)c3)ncc2F)CC(C)(C)N1 [III-96, N2-(3-chloro-4-(1-(2-fluoroethyl)piperidin-4-yloxy)phenyl)-5-fluoro-N4-(2,2,6,6-tetramethylpiperidin-4-yl)pyrimidine-2,4-diamine]
